Reference: patent US9724312B2, “Agent for the prevention, improvement or treatment of retinal disease” (ROHTO PHARMACEUTICAL CO., LTD., priority 2012, dated 2017)

Experiments:
[1] = tested on: rat models with glaucoma induced by NMDA; assay: Protective effect for retinal ganglion cells against nerve damage by NMDA (thickness of inner plexiform layer); assay type: in vivo
Description: In recent years the glutamate analogue NMDA (N-methyl-D-aspartate) has been widely reported to be one of causative agents of neurodegenerative diseases including Alzheimer's disease. In the ophthalmic field, NMDA is considered to be involved in optic nerve damage in glaucoma (Brain Research Bulletin, 81 (2010) 349-358). Accordingly, in this experiment rat models with glaucoma induced by NMDA were used to evaluate the neuroprotective effect of GGA.
To Sprague-Dawley (SD) rats, the all-trans form, the 5Z-mono-cis form and teprenone were separately pre-administered by oral administration (Test Example 1), intravitreal administration (Test Example 2) or ocular instillation administration (Test Example 3) and 5 μL of NMDA was administered into the vitreous body to induce nerve damage. For Test Example 2, a marketed therapeutic eye drop for glaucoma, AIPHAGAN (trade name), was intravitreally administered as a positive control once a day for five days. For each of Test Examples, a base not containing GGA or AIPHAGAN was administered as a control in the same manner as described above.
The dosage and regimen of Test Examples 1 to 3 are shown in Table 1 and the constitution of the base used in each tests are shown in Table 2.
Three days after administration of NMDA, the eyeballs were harvested, fixed with half Karnovsky's fixative for 24 hours, embedded in paraffin, thin sectioned and stained with hematoxylin-eosin (HE) to prepare histopathological sections. The histological sections were observed under an optical microscope and the thickness (μm) of the inner plexiform layer (IPL) of the retina was measured. From the thickness of the inner plexiform layer (IPL) of the retina, the neuroprotective effects of the test preparations were evaluated.

[2] = tested on: IL-8 production by TNF-α in ARPE-19; assay: Inhibitory effect on IL-8 production by TNF-α from retinal pigment epithelial cells; assay type: cell-based, human; settings: all-trans form content 50 μM, 16 h, then TNF-α 4 h, FIG. 5, n=3
Description: Age-related macular degeneration is known to involve the accumulation of drusen under the retinal pigment epithelium. Drusen attract macrophages and macrophages secrete TNF-α. TNF-α acts on the retinal pigment epithelium and its peripheral tissue, and the cells subsequently produce a variety of cytokines and cause inflammation (Mol Vis. 2008 14: 2292-303). Atypical cytokine that is involved in neutrophil migration and spreads inflammation is interleukin-8 (IL-8). In this experiment, the inhibitory effect of GGA on IL-8 production by TNF-α was examined using a human-derived retinal pigment epithelial cell line, ARPE-19. […]
After 4 hours of incubation, 150 μL of the cell culture supernatant was collected and stored at −80° C. […] Then, 100 μL of an equivalent mixture of a cell viability detection reagent Cell Titer-Glo and PBS was added to each well and the luminescence produced by the reaction with ATP in living cells was measured with a luminometer. From the measured luminescence, the cell viability was calculated by the following formula. Cell viability(%)=100×[(luminescence of GGA-treated group)/(luminescence of base-treated group)]
The stored cell culture supernatant was allowed to warm to room temperature, and the IL-8 concentration was quantified with Human CXCL8/IL-8 Quantikine ELISA Kit (R&D Systems). […]

CC(=O)CC/C=C(\C)CC/C=C(\C)CC/C=C(\C)CCC=C(C)C [all-trans form, (5E,9E,13E)-6,10,14,18-tetramethyl-5,9,13,17-nonadecatetrae n-2-one]
neuroprotective effect against nerve damage by NMDA compared with base (IPL thickness) ([1]; Test Example 1: oral 800 mg/kg, 2 days, once a day, NMDA 4 mM, FIG. 6, Dunnett): significant neuroprotective effects | neuroprotective effect against nerve damage by NMDA compared with base (IPL thickness) ([1]; Test Example 2: intravitreal 0.05% w/v, 5 days, once a day, NMDA 40 mM, FIG. 7, Tukey-Kramer): significant neuroprotective effects | neuroprotective effect compared with AIPHAGAN Ophthalmic Solution 0.1% ([1]; Test Example 2: intravitreal 0.05% w/v, 5 days, NMDA 40 mM, FIG. 7): significantly superior neuroprotective effect | neuroprotective effect against nerve damage by NMDA compared with base (IPL thickness) ([1]; Test Example 3: ocular instillation 1% w/v, 5 days, 5 times per day, NMDA 4 mM, FIG. 9, t-test): significant neuroprotective effect | inhibitory effect on IL-8 production compared with GGA 6:4 [2]: significant inhibitory effect on IL-8 production
